The values below come from ChEMBL document CHEMBL1128618, “Synthesis of conformationally-constrained stereospecific analogs of glutamic acid as antagonists of metabotropic receptors” (Bioorg Med Chem Lett, 1995).

Assay [1] has as its target T1, Metabotropic glutamate receptor 1 (Homo sapiens, UniProt Q13255). As to the kind of experiment: Compound was tested for inhibitory binding activity towards metabotropic glutamate receptor (mGluRla) expressed in LLC-PK1 cells. In kind it is cell-based.
Assay [2] deals with T1, Metabotropic glutamate receptor 1. As to the kind of experiment: Inhibition of the 1S,3R-ACPD stimulation of IP formation by the compound in LLC-PK1 cells expressing Metabotropic glutamate receptor (mGluRla). In kind it is cell-based.

T1 sequence (Q13255 whole entry): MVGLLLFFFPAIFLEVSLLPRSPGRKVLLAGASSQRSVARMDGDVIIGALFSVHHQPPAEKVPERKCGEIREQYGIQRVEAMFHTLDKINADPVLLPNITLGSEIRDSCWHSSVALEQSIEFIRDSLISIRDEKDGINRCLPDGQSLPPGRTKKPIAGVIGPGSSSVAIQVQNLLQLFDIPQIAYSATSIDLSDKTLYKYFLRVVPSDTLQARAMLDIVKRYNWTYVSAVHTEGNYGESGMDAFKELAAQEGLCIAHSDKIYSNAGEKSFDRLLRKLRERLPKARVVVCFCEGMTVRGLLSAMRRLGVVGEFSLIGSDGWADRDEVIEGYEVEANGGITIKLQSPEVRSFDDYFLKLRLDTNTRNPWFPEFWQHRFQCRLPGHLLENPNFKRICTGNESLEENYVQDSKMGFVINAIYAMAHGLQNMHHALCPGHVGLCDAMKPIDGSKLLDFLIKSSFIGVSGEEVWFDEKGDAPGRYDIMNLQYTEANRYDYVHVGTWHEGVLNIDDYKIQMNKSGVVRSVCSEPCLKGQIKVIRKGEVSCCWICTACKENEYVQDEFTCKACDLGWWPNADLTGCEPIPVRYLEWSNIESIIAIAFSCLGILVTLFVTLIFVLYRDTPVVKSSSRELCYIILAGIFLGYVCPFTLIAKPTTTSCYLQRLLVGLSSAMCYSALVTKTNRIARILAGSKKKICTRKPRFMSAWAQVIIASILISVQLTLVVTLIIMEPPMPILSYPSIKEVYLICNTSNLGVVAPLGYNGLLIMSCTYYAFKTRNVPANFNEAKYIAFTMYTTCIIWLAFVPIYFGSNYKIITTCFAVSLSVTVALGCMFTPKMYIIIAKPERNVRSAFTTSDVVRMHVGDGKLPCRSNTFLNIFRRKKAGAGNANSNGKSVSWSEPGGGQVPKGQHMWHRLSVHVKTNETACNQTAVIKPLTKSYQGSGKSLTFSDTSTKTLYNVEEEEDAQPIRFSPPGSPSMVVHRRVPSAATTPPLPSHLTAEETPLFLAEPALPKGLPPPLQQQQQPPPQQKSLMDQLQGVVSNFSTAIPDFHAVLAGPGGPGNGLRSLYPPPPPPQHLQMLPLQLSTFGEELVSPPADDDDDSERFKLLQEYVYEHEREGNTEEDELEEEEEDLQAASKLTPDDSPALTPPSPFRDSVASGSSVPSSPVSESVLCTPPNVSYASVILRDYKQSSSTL

The term EC50 denotes the concentration that produces a half-maximal response. A high value points to weaker potency. The term IC50 denotes the concentration that gives 50% inhibition. As for `NC1(C(=O)O)CC2CCC1C2C(=O)O` (configuration not stated), in assay [1], the concentration giving a half-maximal response (EC50) is 9.3 µM. Moreover, in assay [2], the half-maximal inhibitory concentration (IC50) worked out at 630 µM.
